Biological target: GPR35 (Homo sapiens, UniProt Q9HC97)
Test: label-free dynamic mass redistribution
Type: cell-based
Conditions: read-out: EC50/IC50; agonist mode; HBSS, 10 mM HEPES, pH 7.4

GPR35, sequence (Q9HC97 whole entry): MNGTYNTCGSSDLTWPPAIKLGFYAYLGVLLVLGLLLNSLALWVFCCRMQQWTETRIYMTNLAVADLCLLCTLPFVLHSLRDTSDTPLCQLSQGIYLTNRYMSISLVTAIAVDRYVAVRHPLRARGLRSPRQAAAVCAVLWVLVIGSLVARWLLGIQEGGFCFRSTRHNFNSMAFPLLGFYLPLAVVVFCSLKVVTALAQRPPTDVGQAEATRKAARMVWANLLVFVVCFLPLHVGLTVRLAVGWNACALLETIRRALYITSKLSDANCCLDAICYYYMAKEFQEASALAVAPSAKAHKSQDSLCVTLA

**Q.** For `COc1c(O)cc2occ(-c3ccc(O)cc3)c(=O)c2c1O` [LCDD-41, tectorigenin], which EC50 is on record?
**A.** > 200 µM

**Q.** For `O=C1c2c(O)cc(O)cc2O[C@H](c2ccc(O)c(O)c2)[C@H]1O` [LCDD-68, taxifolin], which EC50 is on record?
**A.** > 200 µM

**Q.** Which EC50 does the source give for `O=C(/C=C/c1ccc(O)c(O)c1)O[C@@H]1[C@H](O)C[C@@](O)(C(=O)O)C[C@H]1OC(=O)/C=C/c1ccc(O)c(O)c1` [LCDD-79, isochlorogenic acid C] here?
**A.** 114 µM

**Q.** How did the EC50 turn out when `O=C(/C=C/c1ccc(O)cc1)c1ccc(O)cc1O` [LCDD-88, isoliquiritigenin] was run?
**A.** > 200 µM

**Q.** `COc1c(/C=C/C(=O)c2ccc(O)cc2)ccc(O)c1O` [LCDD-93, licochalcone B] was tested. Which EC50 did it give?
**A.** 25.1 µM

**Q.** `O=C(O)[C@H]1O[C@@H](Oc2cc3oc(-c4ccccc4)cc(=O)c3c(O)c2O)[C@H](O)[C@@H](O)[C@@H]1O` [LCDD-117, baicalin] was tested. Which EC50 did it give?
**A.** > 200 µM
